Data: the supplement of paper PMC10307832

Key:
Experiment in all cases: relative viability (nuclei count vs DMSO), 5 days (fraction); higher = more cells survive
NCI-H2085 = system: NCI-H2085
Summary of the method: (§1)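 Values are medians from duplicate plates. Each reflects relative viability, defined as the nuclei count of treated wells over that of vehicle wells. Lung cancer cell lines in 1536-well plates were pin-tool dosed one day after seeding with one drug alone or with a fixed anchor-drug dose plus five library-drug doses (not always all listed) in √10 steps, then fixed, stained and imaged at 4× after 5 days.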

COR-L23 = system: COR-L23
Summary of the method: as §1

PC-14 = system: PC-14
Summary of the method: as §1

NCI-H2087 = system: NCI-H2087
Summary of the method: as §1

LU99A = system: LU99A
Summary of the method: as §1

NCI-H1355 = system: NCI-H1355
Summary of the method: as §1

NCI-H460 = system: NCI-H460
Summary of the method: as §1

HCC-44 = system: HCC-44
Summary of the method: as §1

LXF-289 = system: LXF-289
Summary of the method: as §1

NCI-H1993 = system: NCI-H1993
Summary of the method: as §1

NCI-H1792 = system: NCI-H1792
Summary of the method: as §1

SMILES: Cc1cn(-c2cc(NC(=O)c3ccc(C)c(Nc4nccc(-c5cccnc5)n4)c3)cc(C(F)(F)F)c2)cn1 [Nilotinib] + O=C(c1cc(Cc2n[nH]c(=O)c3ccccc23)ccc1F)N1CCN(C(=O)C2CC2)CC1 [Olaparib] (partner 8 µM)
- relative viability (NCI-H2085; first compound 0.003162 µM): 0.834
- relative viability (NCI-H2085; first compound 0.01 µM): 0.797
- relative viability (NCI-H2085; first compound 0.03162 µM): 0.889
- relative viability (NCI-H2085; first compound 0.1 µM): 0.684
- relative viability (COR-L23; first compound 0.001 µM): 0.356
- relative viability (COR-L23; first compound 0.003162 µM): 0.319
- relative viability (COR-L23; first compound 0.01 µM): 0.396
- relative viability (COR-L23; first compound 0.03162 µM): 0.306
- relative viability (COR-L23; first compound 0.1 µM): 0.288
- relative viability (PC-14; first compound 0.001 µM): 0.266
- relative viability (PC-14; first compound 0.003162 µM): 0.253
- relative viability (PC-14; first compound 0.01 µM): 0.264
- relative viability (PC-14; first compound 0.03162 µM): 0.264
- relative viability (PC-14; first compound 0.1 µM): 0.339
- relative viability (NCI-H2087; first compound 0.001 µM): 0.529
- relative viability (NCI-H2087; first compound 0.003162 µM): 0.672
- relative viability (NCI-H2087; first compound 0.01 µM): 0.592
- relative viability (NCI-H2087; first compound 0.03162 µM): 0.552
- relative viability (NCI-H2087; first compound 0.1 µM): 0.514
- relative viability (LU99A; first compound 0.001 µM): 0.2
- relative viability (LU99A; first compound 0.003162 µM): 0.201
- relative viability (LU99A; first compound 0.03162 µM): 0.221
- relative viability (LU99A; first compound 0.1 µM): 0.164
- relative viability (NCI-H1355; first compound 0.001 µM): 0.748
- relative viability (NCI-H1355; first compound 0.003162 µM): 0.816
- relative viability (NCI-H1355; first compound 0.01 µM): 0.737
- relative viability (NCI-H1355; first compound 0.03162 µM): 0.785
- relative viability (NCI-H1355; first compound 0.1 µM): 0.763
- relative viability (NCI-H460; first compound 0.001 µM): 0.318
- relative viability (NCI-H460; first compound 0.003162 µM): 0.295
- relative viability (NCI-H460; first compound 0.01 µM): 0.496
- relative viability (NCI-H460; first compound 0.03162 µM): 0.27
- relative viability (NCI-H460; first compound 0.1 µM): 0.34
- relative viability (HCC-44; first compound 0.001 µM): 0.895
- relative viability (HCC-44; first compound 0.003162 µM): 0.97
- relative viability (HCC-44; first compound 0.01 µM): 0.976
- relative viability (HCC-44; first compound 0.1 µM): 0.983
- relative viability (LXF-289; first compound 0.001 µM): 1.07
- relative viability (LXF-289; first compound 0.003162 µM): 1.37
- relative viability (LXF-289; first compound 0.01 µM): 1.26
- relative viability (LXF-289; first compound 0.03162 µM): 1
- relative viability (LXF-289; first compound 0.1 µM): 1.06
- relative viability (NCI-H1993; first compound 0.001 µM): 0.957
- relative viability (NCI-H1993; first compound 0.003162 µM): 1.1
- relative viability (NCI-H1993; first compound 0.01 µM): 1.75
- relative viability (NCI-H1993; first compound 0.03162 µM): 1.01
- relative viability (NCI-H1993; first compound 0.1 µM): 1.23
- relative viability (NCI-H1792; first compound 0.001 µM): 0.312
- relative viability (NCI-H1792; first compound 0.003162 µM): 0.535
- relative viability (NCI-H1792; first compound 0.01 µM): 0.456
- relative viability (NCI-H1792; first compound 0.03162 µM): 0.258
- relative viability (NCI-H1792; first compound 0.1 µM): 0.319
